Data from patent EP4582418A1, “CRYSTALLINE FORM OF QUINOLINE DERIVATIVE INHIBITOR, PREPARATION METHOD THEREFOR AND USE THEREOF” (TransThera Sciences (Nanjing), Inc., priority 2022, dated 2024).

Columns and labels:
H1299 cell pAXL = target: T1, H1299 cell pAXL (Homo sapiens, UniProt P30530); assay: Inhibitory activity on cell pAXL (Western Blot, hGAS6 stimulation); assay type: cell-based; conditions: H1299 cells, 60 min compound then hGAS6 200 ng/mL 60 min
T1 construct: endogenous in cells; host or cells: H1299
T1 sequence (P30530 26-894): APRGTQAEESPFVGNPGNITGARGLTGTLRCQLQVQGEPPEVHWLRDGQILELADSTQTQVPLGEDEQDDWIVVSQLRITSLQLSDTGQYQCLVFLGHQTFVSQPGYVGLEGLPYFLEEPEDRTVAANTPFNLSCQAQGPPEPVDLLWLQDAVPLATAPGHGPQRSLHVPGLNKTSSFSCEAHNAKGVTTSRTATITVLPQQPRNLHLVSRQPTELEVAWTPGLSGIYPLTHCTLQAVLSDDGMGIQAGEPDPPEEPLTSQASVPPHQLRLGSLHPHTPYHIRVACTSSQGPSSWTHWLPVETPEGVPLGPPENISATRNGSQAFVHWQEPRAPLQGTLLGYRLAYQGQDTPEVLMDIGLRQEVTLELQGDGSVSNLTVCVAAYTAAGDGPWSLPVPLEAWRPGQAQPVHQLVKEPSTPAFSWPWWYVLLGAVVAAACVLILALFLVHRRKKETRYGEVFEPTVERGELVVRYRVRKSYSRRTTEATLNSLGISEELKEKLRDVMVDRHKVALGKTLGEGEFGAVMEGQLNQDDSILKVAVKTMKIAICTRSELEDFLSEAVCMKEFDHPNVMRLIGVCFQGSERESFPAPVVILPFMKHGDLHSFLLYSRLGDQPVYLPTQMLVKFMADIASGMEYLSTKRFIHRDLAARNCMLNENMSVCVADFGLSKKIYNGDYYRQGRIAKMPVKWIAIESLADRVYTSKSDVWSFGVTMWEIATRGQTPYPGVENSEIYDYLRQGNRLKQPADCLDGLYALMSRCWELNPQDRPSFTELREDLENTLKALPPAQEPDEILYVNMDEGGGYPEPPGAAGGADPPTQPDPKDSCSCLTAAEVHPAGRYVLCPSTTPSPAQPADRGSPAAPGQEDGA
Procedure: H1299 is a non-small cell lung cancer cell line.
Test substance: the crystal form of the methanesulfonate of the compound of formula (I) of the present disclosure, having the structure shown above.
Test instruments: protein electrophoresis apparatus (Bio Rad), membrane transfer apparatus (Bio Rad), exposure apparatus (Tanon), CO2 cell incubator (Thermo), and the like.
H1299 cells were inoculated into a 6-well plate (containing 10% FBS 1640 medium, 5 × 10^5 cells/well) and adherently cultivated at 37 °C with 5% CO2 for 18 h. The cells were starved overnight, and different concentrations of the compound were added. The final compound concentrations were 0.37 nM, 1.1 nM, 3.3 nM, 10 nM, and 30 nM, with the final DMSO content in each compound well being 1 ‰. The negative control well contained medium with 1‰ DMSO. The cells were incubated at 37 °C with 5% CO2 for 60 min, and then hGAS6 (R&D, final concentration: 200 ng/mL) was added to each well. The cells were incubated for another 60 min, and then the total protein of the cells was extracted for a Western Blot experiment to assay the inhibitory activity of the compound on cell pAXL.

[1] = Solubility in FaSSIF (pH 6.5) and FeSSIF (pH 5.0) buffer solutions; assay type: physicochemical
Procedure: Test substances: the crystal forms I, II, III, and IV of the methanesulfonate of the compound of formula (I).
• 1) 0.42 g of NaOH, 3.44 g of anhydrous NaH2PO4, and 6.19 g of NaCl were dissolved in about 0.9 L of pure water; • 2) the pH was adjusted to 6.5 using 1 N NaOH or 1 N HCl, and the buffer solution was supplemented to the volume of 1 L with pure water at room temperature; • 3) 2.24 g of FaSSIF powder was added to about 0.5 L of the buffer solution, and the mixture was stirred until the powder was completely dissolved; the resulting solution was supplemented to the volume of 1 L with the buffer solution at room temperature, and after being left to stand for 2 h, it was ready for use.
• 1) 4.04 g of NaOH, 8.65 g of glacial acetic acid, and 11.87 g of NaCl were dissolved in about 0.9 L of pure water; • 2) the pH was adjusted to 5.0 using 1 N NaOH or 1 N HCl, and the buffer solution was supplemented to the volume of 1 L with pure water at room temperature; • 3) 11.2 g of FeSSIF powder was added to about 0.5 L of the buffer solution, and the mixture was stirred until the powder was completely dissolved; the resulting solution was supplemented to the volume of 1 L with the buffer solution at room temperature, and after being left to stand for 2 h, it was ready for use.
An appropriate amount of each test substance was placed into separate 10 mL PE tubes, and FaSSIF (pH 6.5) buffer solution and FeSSIF (pH 5.0) buffer solution, each 10 mL, were added into the tubes, respectively. The tubes were then placed in a constant temperature water bath shaker and shaken at 37 °C for 24 h. After 24 h, samples were collected and centrifuged. The supernatants were diluted, and the solubility of the supernatants was measured.

[2] = Stability test under influencing factors (high temperature, high humidity, illumination); assay type: physicochemical
Procedure: Test substances: the crystal forms I, II, III, and IV of the methanesulfonate of the compound of formula (I) of the present disclosure.
Methodology: Appropriate amounts of samples of the crystal forms I, II, III, and IV of the methanesulfonate of the compound of formula (I) were separately left to stand open under the conditions of a high temperature (60 °C), a high humidity (RH 92.5%), and illumination (4500±500 Lux); sampling was performed on days 5, 10, and 30 to investigate changes in the appearance, purity, and crystal form of the samples.

[3] = Left to stand open at 60 °C for 5 days
[4] = Left to stand open at 60 °C for 10 days
[5] = Left to stand open at 60 °C for 30 days
[6] = Left to stand open at RH 92.5% for 5 days
[7] = Left to stand open at RH 92.5% for 10 days
[8] = Left to stand open at RH 92.5% for 30 days
[9] = Left to stand open under illumination (4500±500 Lux) for 5 days
[10] = Left to stand open under illumination (4500±500 Lux) for 10 days
[11] = Left to stand open under illumination (4500±500 Lux) for 30 days

## COc1cc2nccc(Oc3ccc(NC(=O)c4nn(C(C)C)cc(-c5ccc(F)cc5)c4=O)nc3)c2cc1OC [Crystal form I, N-(5-((6,7-dimethoxyquinolin-4-yl)oxy)pyridin-2-yl)-5-(4-fluorophenyl)-1-isopropyl-4-oxo-1,4-dihydropyridazine-3-carboxamide]
H1299 cell pAXL
  IC50: < 0.37 nM
[1]; FaSSIF (pH 6.5), 37 °C, shaken 24 h
  24-hour solubility in buffer solutions with different pH values pH6.5: 0.052 mg/mL
[1]; FeSSIF (pH 5.0), 37 °C, shaken 24 h
  24-hour solubility in buffer solutions with different pH values pH5.0: 0.29 mg/mL
[1]; test solutions at pH 5.0 and pH 6.5
  solubility compared with the compound of formula (I): significantly improved
[2]; 0 days
  Appearance: White or off-white solid
  Purity: 99.69%
[2]; [3]
  Appearance: White or off-white solid
  Purity: 99.70%
[2]; [4]
  Appearance: White or off-white solid
  Purity: 99.68%
[2]; [5]
  Appearance: White or off-white solid
  Purity: 99.67%
[2]; [6]
  Appearance: White or off-white solid
  Purity: 99.69%
[2]; [7]
  Appearance: White or off-white solid
  Purity: 99.68%
[2]; [8]
  Appearance: White or off-white solid
  Purity: 99.67%
[2]; [9]
  Appearance: White or off-white solid
  Purity: 99.70%
[2]; [10]
  Appearance: White or off-white solid
  Purity: 99.69%
[2]; [11]
  Appearance: White or off-white solid
  Purity: 99.69%
[2]; left to stand under conditions of the influencing factors for 30 days
  changes in the appearance and purity: no significant changes
